Molecular target: T1, LOK (Homo sapiens, UniProt O94804)
T1 construct: purchased Carna Biosciences
Assay: mobility shift assay
Format: biochemical

T1 sequence (O94804 whole entry): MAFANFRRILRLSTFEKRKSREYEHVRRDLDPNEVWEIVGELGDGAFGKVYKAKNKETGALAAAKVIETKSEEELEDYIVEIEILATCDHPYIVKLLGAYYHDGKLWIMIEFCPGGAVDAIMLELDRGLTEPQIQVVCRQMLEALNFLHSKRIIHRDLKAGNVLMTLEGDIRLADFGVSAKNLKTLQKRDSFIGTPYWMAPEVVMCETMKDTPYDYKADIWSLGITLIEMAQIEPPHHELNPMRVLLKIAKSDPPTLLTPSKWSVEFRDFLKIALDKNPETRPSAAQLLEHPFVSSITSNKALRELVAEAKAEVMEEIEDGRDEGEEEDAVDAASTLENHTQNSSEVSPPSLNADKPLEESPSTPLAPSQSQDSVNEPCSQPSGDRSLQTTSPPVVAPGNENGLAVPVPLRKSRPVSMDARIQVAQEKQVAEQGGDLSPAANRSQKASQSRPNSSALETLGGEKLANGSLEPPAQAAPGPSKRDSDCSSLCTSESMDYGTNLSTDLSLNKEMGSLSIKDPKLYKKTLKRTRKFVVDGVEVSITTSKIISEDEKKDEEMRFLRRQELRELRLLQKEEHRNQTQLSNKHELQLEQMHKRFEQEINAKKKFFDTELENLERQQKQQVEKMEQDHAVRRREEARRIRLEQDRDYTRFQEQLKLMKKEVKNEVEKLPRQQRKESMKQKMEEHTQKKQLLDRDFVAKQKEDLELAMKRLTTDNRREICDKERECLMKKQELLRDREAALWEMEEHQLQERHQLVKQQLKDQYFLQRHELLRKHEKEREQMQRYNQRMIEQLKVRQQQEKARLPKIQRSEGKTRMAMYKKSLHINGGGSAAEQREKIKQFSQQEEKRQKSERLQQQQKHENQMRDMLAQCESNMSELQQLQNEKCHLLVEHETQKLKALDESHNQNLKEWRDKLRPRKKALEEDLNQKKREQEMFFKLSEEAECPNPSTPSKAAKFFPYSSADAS

`C[C@@H]1CC[C@H]2C(C)(C)CCC[C@]2(C)c2c1oc1c(C=O)c(O)c(O)cc21` [LG-1, liphagal] gave an inhibition at 10 µM of 15.8%.
